Columns and labels:
[1] = target: T1, FAK FAT domain (biotinylated Avitag-FAT protein) (Homo sapiens, UniProt Q05397); assay: Surface plasmon resonance (SPR) binding to immobilised FAT protein; conditions: FAT protein immobilised, peptide 200 μM-0.01 μM, 1:1 binding model; read-out: SPR KD
T1 construct: biotinylated Avitag-FAT protein was diluted in running buffer
T1 sequence (Q05397 914-1045 limits assumed): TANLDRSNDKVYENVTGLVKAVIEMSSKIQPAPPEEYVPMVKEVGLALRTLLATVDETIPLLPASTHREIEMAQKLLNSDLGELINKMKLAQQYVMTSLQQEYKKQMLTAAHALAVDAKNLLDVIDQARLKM

[2] = system: SK-MEL-103 melanoma cells; assay: 3D Matrigel-on-top proliferation assay; type: cell-based; conditions: SK-MEL-103 melanoma cells, 3D Matrigel-on-top
Experimental: B. Competition FP experiment with 1907 showing inhibition of TAMRA-LD2 binding to FAT. C. SPR binding and selectivity analysis using WT FAT and Mutant FAT (L994E, 1936A) at the helix-protein interface. D. Flow cytometry analysis of Rhodamine-1907 (10 μM) cellular uptake in MDA-MB-453 breast cancer cells. E. Boyden-chamber invasion assays in SK-MEL-103 melanoma cells. F. 3D Matrigel-on-top proliferation assays in SK-MEL-103 melanoma cells.
(§1) B. 3D structure of negative control molecule (UACC-2020). C. 3D Matrigel-on-top cell proliferation data of stapled peptides in SK-MEL-103 melanoma cells.
(§2) A negative control myristoylated peptide (2020) was designed and synthesized based on non-active molecule 2014. Experiments were conducted to test the efficacy of these peptides in 3D proliferation assays using SK-MEL-103 melanoma cells. […] Furthermore, 2012 had no effects on the proliferation of normal HUVEC cells (IC50=NA) (FIG. 7).

HUVEC cells = assay: 3D Matrigel-on-top proliferation assay in normal cells; type: cell-based
Experimental: as §1, §2

trypsin = target: T2, trypsin (Bos taurus, UniProt P00760); assay: In vitro trypsin digest assay (trypsin-agarose beads, LC-MS); type: in vitro ADME; conditions: trypsin-agarose beads in physiological buffer, read-out: t1/2 in trypsin digest (protease resistance) (converted)
T2 construct: purchased ThermoFisher
T2 sequence (P00760 24-246): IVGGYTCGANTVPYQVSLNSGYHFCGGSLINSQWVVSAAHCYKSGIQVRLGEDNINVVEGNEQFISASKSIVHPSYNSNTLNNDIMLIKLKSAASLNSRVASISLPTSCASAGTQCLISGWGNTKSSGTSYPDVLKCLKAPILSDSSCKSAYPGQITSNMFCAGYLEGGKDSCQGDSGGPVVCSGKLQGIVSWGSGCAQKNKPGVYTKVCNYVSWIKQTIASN
Experimental: Assays were performed using trypsin-agarose beads (ThermoFisher) and measurement of peptide concentration using LC-MS. Peptide half-lives were calculated using GraphPad Prism software.
Trypsin-agarose beads were used to test the potential cleavage of peptides in a physiological buffer and LC-MS was used as the analytical method to determine peptide concentration.

[3] = system: LX2 human liver stellate cells; assay: Anti-fibrotic activity in TGF-β-induced stellate cells (Western blot, morphology); type: cell-based
Experimental: A. Western blot studies of LX2 cells treated with 2 ng/ml TGF-β for 17 h to induce pro-fibrotic phenotypes. […] Quantification of fibronectin results are shown in the lower panel. B. Morphological changes of LX2 cells after TGF-β and peptide treatment for 17 h. Images were captured using bright field microscopy.
Experiments were conducted to test the anti-fibrotic effects of stapled peptides targeting the FAK FAT domain (FIG. 13). TGF-β induction was performed in LX-2 human liver stellate cells to promote a pro-fibrotic phenotypic and differentiation to myofibroblast-like cells.

CCCCCCCCCCCCCC(=O)N[C@@H](CC(N)=O)C(=O)N[C@@H](CC(C)C)C(=O)N[C@]1(C)CCCCCCC=CCCC[C@@](C)(C(=O)N[C@@H](CCC(=O)O)C(=O)N[C@@H](CC(C)C)C(=O)N[C@@H](CC(N)=O)C(N)=O)NC(=O)[C@H](CC(C)C)NC(=O)[C@H](CC(C)C)NC(=O)[C@H](CCCNC(=N)N)NC(=O)[C@H](CC(=O)O)NC(=O)[C@H](CC(C)C)NC(=O)[C@H](CCC(=O)O)NC1=O [Peptide 2012, Myristoyl-NLR8ELDRLLS5ELN-NH2]
Kd [1]: > 200 µM | IC50 [2]: 5.5 µM | 3D proliferation IC50 (HUVEC cells): no effects | half-life (trypsin): > 2880 min | TGF-β-induced expression of fibronectin ([3]; LX2 cells, 2 ng/ml TGF-β 17 h, peptide 10, 5, 2 μM pretreated 1 h): reduced the TGF-β-induced expression of fibronectin, a marker of fibrosis, in a dose-dependent manner | morphological change of TGF-β-induced cells ([3]; LX-2 cells, TGF-β and peptide treatment 17 h, bright field microscopy): induced a morphological change

Source: patent US20260265304A1, “PEPTIDE INHIBITORS OF FOCAL ADHESION KINASE ACTIVITY AND USES THEREOF” (Arizona Board of Regents on Behalf of the University of …, priority 2019, published 2026)
